Experiments:
[1] = test system: E. coli transformed with the Arabidopsis HPPD gene; test: Brown pigment formation in E. coli transformed with the Arabidopsis HPPD gene (absorption at 450 nm); assay type: cell-based; conditions: medium supplemented with tyrosine (FIG. 2)
Description: B. Production of Brown Pigment and Homogentisic Acid in E. coli
No similar brown pigmentation was associated with untransformed E. coli or with E. coli transformed with the control vector.

Arabidopsis HPPD = biological target: T1, Arabidopsis HPPD (Arabidopsis thaliana, UniProt P93836); test: HPPD enzymatic activity by capture of released 14CO2 from 14C-hydroxyphenylpyruvate, extract of E. coli transformed with Arabidopsis HPPD gene; assay type: biochemical
T1 construct: made in house; host or cells: E. coli (pKK233-2, trc promoter); desalted lysate supernatant
T1 sequence (P93836 1-445): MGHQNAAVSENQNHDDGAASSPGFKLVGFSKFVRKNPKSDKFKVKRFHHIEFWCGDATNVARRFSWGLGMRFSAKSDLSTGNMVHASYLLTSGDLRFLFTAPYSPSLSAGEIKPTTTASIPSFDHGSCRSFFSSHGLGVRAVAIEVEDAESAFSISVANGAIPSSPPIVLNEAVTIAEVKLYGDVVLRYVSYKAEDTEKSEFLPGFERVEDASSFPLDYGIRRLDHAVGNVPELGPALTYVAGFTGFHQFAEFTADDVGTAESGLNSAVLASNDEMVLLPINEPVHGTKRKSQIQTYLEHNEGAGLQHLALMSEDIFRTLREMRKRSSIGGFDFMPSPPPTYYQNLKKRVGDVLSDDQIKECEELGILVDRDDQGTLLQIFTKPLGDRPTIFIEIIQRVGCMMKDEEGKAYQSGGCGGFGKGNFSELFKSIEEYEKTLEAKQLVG
Description: E. coli transformants were treated with 0.1 mg/ml lysozyme in 50 mM potassium phosphate buffer (pH 7.3) at 30° C. for 10 min. Cells were sonicated (3 times, 5 sec each, using a VibraCell sonicator, Sonics and Material, Inc., Danbury, Conn.) and the extract was subjected to centrifugation. The supernatant was desalted on an Econo-Pac 10DG column (Bio-Rad, Richmond, Calif.) that had been equilibrated with 50 mM phosphate buffer (pH 7.3). The desalted HPPD-containing extract was used for the HPPD assay.
HPPD enzymatic activity was determined by the capture of released ^14 CO2 from ^14 C-hydroxyphenylpyruvate (Schulz et al., FEBS Letts. 318:162, 1993; Secor, Plant Physiol. 106:1429, 1994). Reactions were performed in 20 ml scintillation vials, each capped with a serum stopper through which a polypropylene well containing 50 μl of benzethonium hydroxide was suspended. Each 450 μl reaction mixture contained: 50 mM potassium phosphate buffer (pH 7.3); 50 μl of a freshly prepared 1:1 (v/v) mixture of 150 mM reduced glutathione and 3 mM dichlorophenolindophenol; 2500 units of catalase; and bacterial extract (source of HPPD). Enzyme inhibitors were added where indicated. ^14 C-hydroxyphenylpyruvate (50 μl of a 2 mM solution), prepared according to the method of Secor (1994, supra), was added to initiate the reaction, which proceeded at 30° C. for 30 min. The reaction was stopped by adding 100 μl 4 N sulfuric acid and the mixture was incubated for a further 30 min. The radioactivity trapped in benzethonium hydroxide was counted in a scintillation counter.

[2] = biological target: partially purified HPPD from barnyardgrass (Echinochloa crus-galli L.); conditions: partially purified HPPD from barnyardgrass (Secor, 1994); cited from earlier work
[3] = biological target: partially purified enzyme extracted from maize (HPPD); conditions: partially purified maize enzyme (Schulz et al., 1993); read-out: calculated IC50; cited from earlier work
Lemna = conditions: cited from earlier work
susceptible plants = conditions: cited from earlier work
albino psdl mutant = conditions: transferred to MS2 medium supplemented with OHPP or HGA; cited from earlier work

N[C@@H](Cc1ccc(O)cc1)C(=O)O [tyrosine]
formation of the brown pigment [1]: increased

CS(=O)(=O)c1ccc(C(=O)C2C(=O)CCCC2=O)c(Cl)c1 [sulcotrione, 2-(2-chloro-4-methanesulfonylbenzoyl)-1,3-cyclohexanedione]
inhibition of the HPPD activity (Arabidopsis HPPD; at more than 1 μM sulcotrione (FIG. 4)): Nearly complete inhibition
IC50 (Arabidopsis HPPD; cell extract of transformed E. coli, pH 7.3, 30° C., 30 min (FIG. 4), read-out: concentration required to cause 50% inhibition of the HPPD activity): 100 nM
Ki [2]: 9.8 nM
type of inhibition [2]: potent competitive inhibitor
IC50 [3]: 45 nM
growth inhibition (Lemna; treatment of Lemna): severely inhibited growth
pigment, phytoene and tyrosine changes (susceptible plants; accompanying bleaching): loss of carotenoids and chlorophyll with an increase in phytoene and tyrosine
bleaching (susceptible plants): strong bleaching

O=C(O)Cc1cc(O)ccc1O [homogentisic acid]
reversal of the herbicidal effect of sulcotrione (Lemna; Lemna treated with sulcotrione): herbicidal effect could be abolished
greening of albino psdl mutant (albino psdl mutant): greened

B1: Arabidopsis HPPD: 4-hydroxyphenylpyruvate dioxygenase (HPPD) from Arabidopsis thaliana (AtHPPD) SEQ ID No: 1 (protein)
chain: MGHQNAAVSENQNHDDGAASSPGFKLVGFSKFVRKNPKSDKFKVKRFHHIEFWCGDATNVARRFSWGLGMRFSAKSDLSTGNMVHASYLLTSGDLRFLFTAPYSPSLSAGEIKPTTTASIPSFDHGSCRSFFSSHGLGVRAVAIEVEDAESAFSISVANGAIPSSPPIVLNEAVTIAEVKLYGDVVLRYVSYKAEDTEKSEFLPGFERVEDASSFPLDYGIRRLDHAVGNVPELGPALTYVAGFTGFHQFAEFTADDVGTAESGLNSAVLASNDEMVLLPINEPVHGTKRKSQIQTYLEHNEGAGLQHLALMSEDIFRTLREMRKRSSIGGFDFMPSPPPTYYQNLKKRVGDVLSDDQIKECEELGILVDRDDQGTLLQIFTKPLGDDRPTIFIEIIQRVGCMMKDEEGKAYQSGGCGGFGKGNFSELFKSIEEYEKTLEAKQLVG
HPPD activity (Arabidopsis HPPD; extract of E. coli transformed with the Arabidopsis HPPD gene, no inhibitor): 2.7 μmol/mg protein/hr

Reference: patent US6118050A, “Hydroxyphenylpyruvate dioxygenase gene from arabidopsis and method of screening for inhibitors thereof” (American Cyanamid Company, priority 1997, dated 2000)
